Assay results from PMC5814047, “Peptidic inhibitors of insulin-degrading enzyme with potential for dermatological applications discovered via phage display” (PLoS ONE, 2018).
Where “and” joins values, the source holds several entries; their conditions need not be identical. Equal entries are not always repeated. Bridge positions count the residues as written; N and C are the ends. Peptide text beside a SMILES is read from it.

Tested on: alpha-1 type I collagen in primary murine skin fibroblasts
Assay: Western blotting of cell-associated alpha-1 type I collagen
Format: cell-based
Settings: for COL1A1 Adj. Band Vol. normalized to control on each gel: control = Day 0 COL1A1+DMSO sample; for Normalized COL1A1/GAPDH ratio, Mean: mean of 4 replicates; for COL1A1/GAPDH ratio normalized to Day 0, DMSO only control, Mean: mean of 4 replicates (Figure 4E)
Experimental: Insulin promotes wound healing and overall skin health by affecting a number of processes, including cell proliferation, cell migration, and the production and secretion of ECM components, particularly type I collagen. We therefore assessed the ability of P12-3A to influence these processes in cultured skin fibroblasts and keratinocytes. To that end, primary mouse skin fibroblasts were grown for 4 d in multiple concentrations of insulin in the presence or absence of P12-3A, and insulin concentration over time was monitored by ELISA. […] Finally, the effects of P12-3A on collagen production in were assessed at both the transcriptional and the posttranslational level in confluent monolayers of fibroblasts. After 4 d of treatment with P12-3A (100 μM), mRNA levels for the major form of collagen, alpha-1 type I collagen (COL1A1), were quantified by RT-PCR and found to be increased to ~2.6 times the levels of untreated cells (Fig 4C). To assess overall levels of collagen production and secretion, we quantified levels of hydroxyproline, a modified amino acid present almost exclusively in collagen proteins. […] Western blotting also confirmed that mature, cell-associated collagen levels were increased in the presence of P12-3A (Fig 4E).
Fig 4 Effects of P12-3A on cultured skin cells. A, Insulin concentrations as a function of time in logarithmically growing primary murine skin fibroblasts in the absence or presence of P12-3A (100 μM). […] Data are mean ± SEM of 4 independent replications. *P<0.05, **P<0.01. B, Proliferation of cells in the absence or presence of P12-3A (100 μM). Data are mean ± SEM of 6 independent replications. […] C,D,E, P12-3A (100 μM) potentiates insulin-induced collagen production in skin fibroblasts. Collagen production was assessed by COL1A1 mRNA levels (C), levels of hydroxyproline secreted into the medium (D), and cell-associated mature alpha-1 type I collagen levels detected by Western blotting (E). Data are mean ± SD of 4 independent replications. *P<0.05, **P<0.01. […] Migration of HaCaT cells 48 h after induction of a scratch wound in the presence of the indicated quantities of insulin and/or P12-3A (100 μM). Data are mean ± SEM of 6 independent replications. *P<0.05, **P<0.01.
Protein was collected using the M-Per Mammalian Extraction Reagent and the concentration was quantified using the Pierce™BCA Protein Assay Kit according to manufacturer’s recommendations (Thermo Fisher Scientific, Waltham, MA, USA). Protein (30 μg/well) was separated SDS-PAGE under reducing conditions using Novex™ 10% polyacrylamide tris-glycine mini gels and transferred to nitrocellulose membranes as described. Briefly, membranes were blocked in 5% non-fat milk in tris-buffered saline supplemented with 0.2% Tween-20 (TBST), cut into segments and incubated for 1 h at room temperature with anti-alpha-1 type I collagen (1:5000) and anti-GAPDH (1:10,000) antibodies, washed extensively in TBST, then probed with anti-rabbit (1:20,000) or anti-goat (1:50,000) secondary antibodies, respectively, and detected by enhanced chemoluminescence using SuperSignal West Pico Substrate. Protein expression, normalized to GAPDH levels, was quantified using the band analysis tools of ImageLab software, version 4.1 (Bio-Rad Laboratories, Inc., Hercules, CA, USA).

## CC(C)C[C@H](NC(=O)[C@H](CO)NC(=O)[C@@H](N)CCC(N)=O)C(=O)N1CCC[C@H]1C(=O)N[C@@H](Cc1c[nH]c2ccccc12)C(=O)N[C@H]1CSSC[C@@H](C(=O)N[C@H](C(=O)N[C@H](C(N)=O)[C@@H](C)O)C(C)C)NC(=O)[C@H](Cc2c[nH]cn2)NC(=O)[C@@H]2CCCN2C(=O)[C@H](Cc2ccc(O)cc2)NC1=O [P12-3A] (H-QSLPWCYPHCVT-NH2; disulfide 6-10 (inferred))
Day 0, individual replicates
  COL1A1/GAPDH ratio normalized to Day 0, DMSO only control: 102.562 and 78.683 and 108.954 and 116.015
  Normalized COL1A1/GAPDH ratio from same sample: 1.131 (2×) and 0.868 (2×) and 1.202 (2×) and 1.28 and 1.280
  COL1A1 Adj. Band Vol. normalized to control on each gel: 1.022 and 0.7932 and 0.9786 and 1.091
Day 0
  Normalized COL1A1/GAPDH ratio, Mean: 1.120
  COL1A1/GAPDH ratio normalized to Day 0, DMSO only control, Mean: 102
Day 4, individual replicates
  Normalized COL1A1/GAPDH ratio from same sample: 4.269 (2×) and 4.793 (2×) and 3.93 and 3.135 (2×) and 3.930
  COL1A1 Adj. Band Vol. normalized to control on each gel: 3.82 and 4.41 and 3.218 and 2.717
Day 4
  Normalized COL1A1/GAPDH ratio, Mean: 4.032
  COL1A1/GAPDH ratio normalized to Day 0, DMSO only control, Mean: 345
In the presence of P12-3A (100 μM)
  mature, cell-associated collagen levels: increased
